Series [1] deals with T1, Calmodulin-sensitive adenylate cyclase (Bacillus anthracis) (UniProt P40136).
T1 sequence (whole entry): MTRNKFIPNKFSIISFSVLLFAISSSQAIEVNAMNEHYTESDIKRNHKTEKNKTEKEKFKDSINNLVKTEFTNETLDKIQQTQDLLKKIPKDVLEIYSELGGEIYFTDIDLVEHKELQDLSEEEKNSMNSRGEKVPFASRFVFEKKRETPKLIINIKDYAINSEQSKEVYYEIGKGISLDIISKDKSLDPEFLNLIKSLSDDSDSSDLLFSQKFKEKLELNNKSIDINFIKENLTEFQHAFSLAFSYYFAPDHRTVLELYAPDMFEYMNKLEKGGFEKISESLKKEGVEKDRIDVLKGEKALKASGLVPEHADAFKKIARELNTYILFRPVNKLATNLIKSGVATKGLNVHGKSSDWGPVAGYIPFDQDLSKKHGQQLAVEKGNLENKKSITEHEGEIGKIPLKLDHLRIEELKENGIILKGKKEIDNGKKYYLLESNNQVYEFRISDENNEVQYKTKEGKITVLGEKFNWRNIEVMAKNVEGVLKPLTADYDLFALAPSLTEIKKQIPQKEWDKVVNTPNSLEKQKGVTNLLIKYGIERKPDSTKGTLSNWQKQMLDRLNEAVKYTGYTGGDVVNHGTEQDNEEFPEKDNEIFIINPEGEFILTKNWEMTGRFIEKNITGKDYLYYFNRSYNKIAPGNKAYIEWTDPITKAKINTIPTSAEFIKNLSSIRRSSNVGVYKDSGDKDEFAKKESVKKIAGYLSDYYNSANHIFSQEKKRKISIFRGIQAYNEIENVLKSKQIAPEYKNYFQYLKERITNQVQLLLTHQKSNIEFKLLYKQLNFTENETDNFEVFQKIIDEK
The experiment in a line: Inactivation of Bacillus anthracis edema factor assessed as inactivation rate constant in presence of CaM incubated for 10 to 240 mins by EnzChek pyrophosphate assay.

Series [2] addresses T2, Calmodulin-sensitive adenylate cyclase (Bacillus anthracis, UniProt P40136).
T2 sequence (P40136 whole entry): T1 sequence (whole entry)
As to the kind of experiment: Inactivation of Bacillus anthracis edema factor in presence of CaM incubated for 10 to 240 mins by EnzChek pyrophosphate assay.

Series [3] has as its target T1, Calmodulin-sensitive adenylate cyclase (Bacillus anthracis). As to the kind of experiment: Inactivation of Bacillus anthracis edema factor assessed as Kinact/Ki ratio in presence of CaM incubated for 10 to 240 mins by EnzChek pyrophosphate assay relative to FSBA.
The target of series [4] is T3, Serine/threonine-protein kinase Chk1 (Homo sapiens) (UniProt O14757).
T3 sequence (whole entry): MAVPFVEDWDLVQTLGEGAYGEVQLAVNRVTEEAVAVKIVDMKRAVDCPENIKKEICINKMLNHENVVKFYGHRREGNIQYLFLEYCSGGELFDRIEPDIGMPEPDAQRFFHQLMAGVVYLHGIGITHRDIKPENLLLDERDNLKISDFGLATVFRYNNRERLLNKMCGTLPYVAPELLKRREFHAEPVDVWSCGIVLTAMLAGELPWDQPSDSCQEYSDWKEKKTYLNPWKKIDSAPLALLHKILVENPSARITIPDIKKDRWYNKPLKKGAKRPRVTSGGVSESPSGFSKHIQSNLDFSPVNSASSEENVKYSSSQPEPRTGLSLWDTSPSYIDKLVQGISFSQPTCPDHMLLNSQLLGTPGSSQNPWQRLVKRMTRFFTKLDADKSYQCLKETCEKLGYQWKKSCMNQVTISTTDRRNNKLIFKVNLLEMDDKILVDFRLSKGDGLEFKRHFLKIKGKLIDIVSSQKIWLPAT
As to the kind of experiment: Inhibition of human CHK1 at 10 uM by ADP-Glo kinase assay. A general note: In ADP-Glo the light output rises with the ADP produced.

Series [5] has as its target Casein kinase I isoform alpha (Homo sapiens) (UniProt P48729). As to the kind of experiment: Inhibition of human CK1a1 at 10 uM by ADP-Glo kinase assay.
Series [6] addresses Casein kinase II subunit alpha (Homo sapiens) (UniProt P68400). As to the kind of experiment: Inhibition of human CK2a1 at 10 uM by ADP-Glo kinase assay.
Series [7] has as its target Misshapen-like kinase 1 (Homo sapiens) (UniProt Q8N4C8). The experiment in a line: Inhibition of human MINK at 10 uM by ADP-Glo kinase assay.
Series [8] addresses Mitogen-activated protein kinase 14 (Homo sapiens) (UniProt Q16539). The experiment in a line: Inhibition of human p38alpha at 10 uM by ADP-Glo kinase assay.
Series [9] addresses Serine/threonine-protein kinase PAK 1 (Homo sapiens) (UniProt Q13153). As to the kind of experiment: Inhibition of human PAK1 at 10 uM by ADP-Glo kinase assay.
Series [10] in a line: Chemical stability in 0.1 M sodium tetraborate (Na2B4O7, pH 10.0) assessed as parent compound remaining incubated for 24 hrs by LC-MS method. The class given is physicochemical. The note with it: 0.1 M sodium tetraborate buffer, read-out: Stability.
Series [11] is described as follows: Chemical stability in 0.1 N HCl at pH 1.2 assessed as parent compound remaining incubated for 24 hrs by LC-MS method. The class given is physicochemical. Conditions: buffer, pH 1.2, 24 h.
Series [12] can be described thus: Chemical stability in simulated gastric intestinal fluid at pH 1.7 assessed as parent compound remaining incubated for 24 hrs by LC-MS method. The class given is ADME, physicochemical. The note with it: simulated gi fluid, pH 1.7, 24 h.
Series [13] is described as follows: Chemical stability in 0.1 M K2PO4 at pH 7.4 assessed as parent compound remaining incubated for 24 hrs by LC-MS method. The class given is physicochemical. The note with it: buffer, pH 7.4, 24 h.
Series [14] is described as follows: Drug metabolism in 0.1 M sodium tetraborate (Na2B4O7, pH 10.0) assessed as fluoro-sulphonyl group hydrolysis incubated for 24 hrs by LC-MS method. The class given is physicochemical. Conditions: pH 10, 24 h.
Series [15] is described as follows: Stability in C57BL/6 mouse plasma assessed as assessed as parent compound remaining at 10 uM by LC-MS method. The class given is ADME, cell-free, C57B/6. Conditions: read-out: Stability.
The nature of series [16]: Stability in C57BL/6 mouse plasma assessed as half life at 10 uM by LC-MS method. The class given is ADME, cell-free, C57B/6.

Bounds are passed on as bounds.

Results on 2 compounds are retold here after ChEMBL document CHEMBL4177722, “Small molecule inhibitors of anthrax edema factor” (Bioorg Med Chem Lett, 2018).

Chain of Misshapen-like kinase 1 (Homo sapiens) (Q8N4C8 whole entry, looked up): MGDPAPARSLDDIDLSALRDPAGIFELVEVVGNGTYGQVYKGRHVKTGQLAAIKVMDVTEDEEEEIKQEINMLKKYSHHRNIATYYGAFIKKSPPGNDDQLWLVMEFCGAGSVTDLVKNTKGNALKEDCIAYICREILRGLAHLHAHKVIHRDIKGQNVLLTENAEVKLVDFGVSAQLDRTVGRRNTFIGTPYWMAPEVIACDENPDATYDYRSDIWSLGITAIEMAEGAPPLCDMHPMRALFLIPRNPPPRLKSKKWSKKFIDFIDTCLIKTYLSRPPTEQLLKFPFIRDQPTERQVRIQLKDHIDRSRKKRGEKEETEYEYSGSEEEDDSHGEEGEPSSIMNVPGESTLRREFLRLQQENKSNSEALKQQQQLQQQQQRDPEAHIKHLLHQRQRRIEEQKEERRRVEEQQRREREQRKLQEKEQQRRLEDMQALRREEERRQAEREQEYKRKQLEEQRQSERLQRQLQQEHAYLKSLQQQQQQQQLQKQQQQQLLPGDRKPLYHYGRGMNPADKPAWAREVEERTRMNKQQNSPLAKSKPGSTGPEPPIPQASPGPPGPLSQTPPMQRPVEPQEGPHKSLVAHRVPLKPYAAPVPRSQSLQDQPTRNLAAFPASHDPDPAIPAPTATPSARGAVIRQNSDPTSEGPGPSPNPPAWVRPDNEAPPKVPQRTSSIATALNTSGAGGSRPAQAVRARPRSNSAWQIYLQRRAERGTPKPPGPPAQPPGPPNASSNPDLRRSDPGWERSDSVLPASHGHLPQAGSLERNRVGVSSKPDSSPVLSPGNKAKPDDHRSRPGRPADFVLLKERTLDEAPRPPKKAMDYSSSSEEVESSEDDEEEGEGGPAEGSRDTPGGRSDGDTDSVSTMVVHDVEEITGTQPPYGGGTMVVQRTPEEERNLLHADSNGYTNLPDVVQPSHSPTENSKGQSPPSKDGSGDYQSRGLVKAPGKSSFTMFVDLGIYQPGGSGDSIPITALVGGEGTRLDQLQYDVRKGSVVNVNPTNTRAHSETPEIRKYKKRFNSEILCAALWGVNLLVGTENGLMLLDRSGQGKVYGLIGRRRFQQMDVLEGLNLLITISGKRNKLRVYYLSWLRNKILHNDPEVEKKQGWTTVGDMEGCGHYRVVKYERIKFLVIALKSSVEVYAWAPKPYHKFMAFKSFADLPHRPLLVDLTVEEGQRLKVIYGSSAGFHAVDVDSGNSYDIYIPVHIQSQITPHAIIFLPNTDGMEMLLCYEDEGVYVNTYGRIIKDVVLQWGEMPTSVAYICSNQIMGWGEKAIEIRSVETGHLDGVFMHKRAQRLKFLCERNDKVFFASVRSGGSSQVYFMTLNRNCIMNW
Chain of Serine/threonine-protein kinase PAK 1 (Homo sapiens) (Q13153 whole entry): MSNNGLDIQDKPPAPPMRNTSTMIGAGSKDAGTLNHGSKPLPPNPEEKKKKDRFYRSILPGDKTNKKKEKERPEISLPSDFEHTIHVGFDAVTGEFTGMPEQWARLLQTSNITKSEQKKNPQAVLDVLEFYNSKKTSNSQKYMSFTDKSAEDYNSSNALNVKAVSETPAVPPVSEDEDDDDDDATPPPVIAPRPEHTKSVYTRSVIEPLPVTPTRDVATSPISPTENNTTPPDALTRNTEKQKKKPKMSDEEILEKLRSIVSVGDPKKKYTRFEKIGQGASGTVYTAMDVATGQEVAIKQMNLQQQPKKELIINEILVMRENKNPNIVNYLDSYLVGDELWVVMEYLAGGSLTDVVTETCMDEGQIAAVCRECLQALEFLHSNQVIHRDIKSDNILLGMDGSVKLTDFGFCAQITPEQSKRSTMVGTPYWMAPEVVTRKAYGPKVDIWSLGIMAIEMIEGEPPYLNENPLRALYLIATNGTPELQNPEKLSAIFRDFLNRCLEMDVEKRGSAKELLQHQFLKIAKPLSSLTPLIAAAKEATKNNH
Chain of Mitogen-activated protein kinase 14 (Homo sapiens) (Q16539 whole entry): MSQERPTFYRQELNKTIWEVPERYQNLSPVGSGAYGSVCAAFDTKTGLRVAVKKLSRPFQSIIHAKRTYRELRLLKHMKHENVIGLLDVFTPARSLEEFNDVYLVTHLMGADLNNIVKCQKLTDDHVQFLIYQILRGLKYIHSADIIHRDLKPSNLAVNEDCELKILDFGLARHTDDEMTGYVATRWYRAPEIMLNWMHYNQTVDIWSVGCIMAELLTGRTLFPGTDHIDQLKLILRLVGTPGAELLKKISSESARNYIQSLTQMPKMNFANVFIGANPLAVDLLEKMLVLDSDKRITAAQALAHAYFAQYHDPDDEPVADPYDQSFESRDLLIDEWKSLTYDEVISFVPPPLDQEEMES
Chain of Casein kinase II subunit alpha (Homo sapiens) (P68400 whole entry, looked up): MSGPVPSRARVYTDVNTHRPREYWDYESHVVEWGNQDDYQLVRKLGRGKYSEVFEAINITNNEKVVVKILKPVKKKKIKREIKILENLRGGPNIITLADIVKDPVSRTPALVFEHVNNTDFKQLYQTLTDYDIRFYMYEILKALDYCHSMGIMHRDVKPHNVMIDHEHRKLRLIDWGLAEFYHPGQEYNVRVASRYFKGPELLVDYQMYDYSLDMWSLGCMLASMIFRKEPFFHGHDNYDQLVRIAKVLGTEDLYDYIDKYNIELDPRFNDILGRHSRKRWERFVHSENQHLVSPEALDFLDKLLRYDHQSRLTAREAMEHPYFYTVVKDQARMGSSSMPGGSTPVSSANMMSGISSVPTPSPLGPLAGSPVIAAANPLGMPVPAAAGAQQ
Chain of Casein kinase I isoform alpha (Homo sapiens) (P48729 2-337 limits assumed): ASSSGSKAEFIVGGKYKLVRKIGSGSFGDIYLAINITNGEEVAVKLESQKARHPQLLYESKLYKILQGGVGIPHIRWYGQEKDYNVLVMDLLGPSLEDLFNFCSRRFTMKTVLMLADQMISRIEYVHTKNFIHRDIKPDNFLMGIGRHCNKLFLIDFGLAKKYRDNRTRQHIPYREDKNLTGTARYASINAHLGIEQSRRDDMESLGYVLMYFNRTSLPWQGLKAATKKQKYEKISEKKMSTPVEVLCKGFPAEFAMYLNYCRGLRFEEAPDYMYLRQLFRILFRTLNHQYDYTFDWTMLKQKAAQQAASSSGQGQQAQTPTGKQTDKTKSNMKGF

Broadly, the inhibition is the change of the read-out against control, counted positive when it falls. Low values mean little suppression, high ones strong suppression. Broadly, the half-life is the time needed for the level to fall by half in the phase considered. As to `Nc1ncnc2c1ccn2C1CCN(C(=O)c2ccc(S(=O)(=O)F)cc2)CC1`, in series [1], the Kinact turned out to be 0.282 min⁻¹. Moreover, the Ki in [2] stood at 300 nM. Besides, the Ratio in series [3] is 1050. In addition, the inhibition worked out at 18% in series [4]; 0% in series [5]; 9% in series [6]; 5% in series [7]; 6% in series [8]; 0% in series [9]. Also, the remaining at 24 h in [10] was less than 1%. Besides, the Stability entry in series [11], in series [12] and in series [13] was “Stable” each time. Also, the Drug metabolism entry in series [14] is reported as “Metabolite_Notdetected”. Also, the remaining at 10 µM in series [15] was less than 5%. Moreover, the half-life at 10 µM in series [16] was 37.2 min.
As to `Cc1nc(N)c2ccn(C3CCN(C(=O)c4ccc(S(=O)(=O)F)cc4)CC3)c2n1`, the Kinact in series [1] is 0.129 min⁻¹. Further, the Ki in series [2] is 700 nM. Moreover, the Ratio in series [3] stood at 234. Besides, the inhibition in series [4] was found to be 97%; in series [5], 0%; in series [6], 16%; in [7], 17%; in [8], 2%; in series [9], 0%.
